# Patent EP0014223A1, “Quaternary aminoacetic anilides, herbicidal compositions containing them and method for influencing plant growth” (CIBA-GEIGY AG, priority 1979, dated 1980)
# Read-outs that look alike come from different tables or passages of the source.
# Tests used:
# chrysanthemum varieties = assay: Biological tests on chrysanthemums, summary over all varieties; type: in vivo; settings: depending on the variety; in sufficient water to wet all the foliage
# Protocol: (§1) In these tests chrysanthemum varieties were used which, on account of their strong growth, can only be reared as pot plants in combination with growth inhibitors.
# (§2) About 25 days after potting (14 days after pinching) the plants were sprayed with aqueous preparations of the active substance of the Example and with Alar (known inhibitior for comparison). The growth in height of the plants was measured after three different periods (see table) and the growth inhibition is expressed in percent of the height measured on untreated plants (check = 0% reduction).
# Depending on the variety the optimal growth inhibition (20 to 35%) was obtained with rates between 125-250 ppm of the active ingredient of the Example in sufficient water to wet all the foliage. With one variety a soil drench application was also performed.
# chrysanthemums = assay: Trials under practical conditions on chrysanthemums; type: in vivo; settings: independent of environmental conditions
# From the text: This inhibition is independent of environmental conditions (e.g. it is not light-dependent). Depending on the applied rate, any desired degree of growth inhibition can be obtained.
# [1] = tested on: Chrysanthemum variety "Regal Anne"; assay: Biological tests on chrysanthemums, height reduction and delay in flowering; type: in vivo; settings: Soil drench, 250 ppm
# [2] = Solubility of the product; type: physicochemical
# Protocol: (§3) 14,3 g (0,06 mole) of pyrrolidinoacetic acid 3-chloro-anilide are dissolved in 50 ml of ethyl acetate and then 9,4 g (0,078 mole) of allyl bromide are added. The reaction mixture is refluxed for 3 hours and the quaternised end product initially separates out as an oil which chrystallises after a brief time.After filtration with suction, washing with ethyl acetate and drying in vacuo at 50°C, 21,5 g (99,5% of theory) of the quaternary allyl pyrrolidino bromide of the formula [drawing 3] are obtained. Meting point: 144-147°C. The product is colourless, soluble in water (3,7%) and methanol (30%) and stable against hydrolysis in all pH-ranges from 3 to 10.
# [3] = tested on: Chrysanthemum variety "Regal Anne"; assay: Biological tests on chrysanthemums, height reduction and delay in flowering; type: in vivo
# Protocol: as §1, §2
# (§4) The delay in flowering was evaluated as follows: • ^* = 3-4 days delay DAA = Days after application • ^** = 4-7 days delay
# [4] = tested on: Chrysanthemum variety "Golden Anne"; assay: as above; type: in vivo; settings: foliar spray
# Protocol: as §1, §2, §4
# [5] = tested on: Chrysanthemum variety "Wedgewood"; assay: as above; type: in vivo; settings: foliar spray
# Protocol: as §1, §2, §4
# [6] = tested on: Chrysanthemum variety "Aglow"; assay: as above; type: in vivo; settings: foliar spray
# Protocol: as §1, §2, §4
# [7] = Stability against hydrolysis; type: physicochemical; settings: all pH-ranges from 3 to 10
# Protocol: as §3
# [8] = tested on: Soya plants of the variety "Hark"; assay: Inhibition of the vegetative growth and yield increase of soya plants; type: in vivo; settings: for Inhibition rating: 5-trifoliate leaf stage, 4 weeks after application, linear rating 1-9; for % increase of pods A (number of pods) / % increase of pods B (weight of pods): versus untreated control plants
# Protocol: Soya plants of the variety "Hark" were reared in earthenware pots and sprayed at the 5-trifoliate leaf stage with aqueous preparations of the active substance of the Example. The active substance concentrations in the spray broth were 500, 100 and 50 ppm respectively. The plant growth was evaluated 4 weeks after application in accordance with the following linear rating: • 1 = strong inhibition (no growth from the time of application) • 9 = no inhibition (growth as untreated controls)
# The yield increase was evaluated at the sime time in percent increase of the pods when compared with the yield of pods obtained with untreated control plants.
# Value A expresses the % increase in number of pods Value B express the % increase in weight of pods.
smiles,measurement,setting,value
C=CC[N+]1(CC(=O)Nc2cccc(Cl)c2)CCCC1 [B],rates giving the optimal growth inhibition (20 to 35%),chrysanthemum varieties,125-250 ppm
same,inhibition of internode growth,chrysanthemums,uniform and reproducible inhibition of internode growth
same,delay in flowering,[1],** (^** = 4-7 days delay)
same,height reduction against check,[1]; 11 DAA,25%
same,solubility,"[2]; methanol, organic solvent or mixture, read-out: soluble in methanol",300 mg/mL
same,solubility,"[2]; water, read-out: soluble in water",37 mg/mL
same,height reduction against check,"[3]; Soil drench, 250 ppm, 30 DAA",50%
same,height reduction against check,"[3]; Soil drench, 250 ppm, 55 DAA",50%
same,delay in flowering,"[3]; foliar spray, 125 ppm",* (^* = 3-4 days delay)
same,height reduction against check,"[3]; foliar spray, 125 ppm, 11 DAA",10%
same,height reduction against check,"[3]; foliar spray, 125 ppm, 30 DAA",25%
same,height reduction against check,"[3]; foliar spray, 125 ppm, 55 DAA",25%
same,delay in flowering,"[3]; foliar spray, 250 ppm",* (^* = 3-4 days delay)
same,height reduction against check,"[3]; foliar spray, 250 ppm, 11 DAA",25%
same,height reduction against check,"[3]; foliar spray, 250 ppm, 30 DAA",50%
same,height reduction against check,"[3]; foliar spray, 250 ppm, 55 DAA",25%
same,delay in flowering,"[3]; foliar spray, 500 ppm",* (^* = 3-4 days delay)
same,height reduction against check,"[3]; foliar spray, 500 ppm, 11 DAA",25%
same,height reduction against check,"[3]; foliar spray, 500 ppm, 30 DAA",60%
same,height reduction against check,"[3]; foliar spray, 500 ppm, 55 DAA",40%
same,delay in flowering,"[3]; foliar spray, 1000 ppm",* (^* = 3-4 days delay)
same,height reduction against check,"[3]; foliar spray, 1000 ppm, 11 DAA",25%
same,height reduction against check,"[3]; foliar spray, 1000 ppm, 30 DAA",60%
same,height reduction against check,"[3]; foliar spray, 1000 ppm, 55 DAA",40%
same,delay in flowering,"[3]; foliar spray, 2000 ppm",** (^** = 4-7 days delay)
same,height reduction against check,"[3]; foliar spray, 2000 ppm, 11 DAA",40%
same,height reduction against check,"[3]; foliar spray, 2000 ppm, 30 DAA",75%
same,height reduction against check,"[3]; foliar spray, 2000 ppm, 55 DAA",50%
same,delay in flowering,[4]; 125 ppm,* (^* = 3-4 days delay)
same,height reduction against check,"[4]; 125 ppm, 14 DAA",10%
same,height reduction against check,"[4]; 125 ppm, 32 DAA",30%
same,height reduction against check,"[4]; 125 ppm, 39 DAA",20%
same,delay in flowering,[4]; 250 ppm,** (^** = 4-7 days delay)
same,height reduction against check,"[4]; 250 ppm, 14 DAA",20%
same,height reduction against check,"[4]; 250 ppm, 32 DAA",35%
same,height reduction against check,"[4]; 250 ppm, 39 DAA",30%
same,delay in flowering,[4]; 500 ppm,** (^** = 4-7 days delay)
same,height reduction against check,"[4]; 500 ppm, 14 DAA",30%
same,height reduction against check,"[4]; 500 ppm, 32 DAA",40%
same,height reduction against check,"[4]; 500 ppm, 39 DAA",35%
same,delay in flowering,[5]; 125 ppm,* (^* = 3-4 days delay)
same,height reduction against check,"[5]; 125 ppm, 14 DAA",10%
same,height reduction against check,"[5]; 125 ppm, 32 DAA",10%
same,height reduction against check,"[5]; 125 ppm, 39 DAA",20%
same,delay in flowering,[5]; 250 ppm,* (^* = 3-4 days delay)
same,height reduction against check,"[5]; 250 ppm, 14 DAA",15%
same,height reduction against check,"[5]; 250 ppm, 32 DAA",15%
same,height reduction against check,"[5]; 250 ppm, 39 DAA",25%
same,delay in flowering,[5]; 500 ppm,* (^* = 3-4 days delay)
same,height reduction against check,"[5]; 500 ppm, 14 DAA",15%
same,height reduction against check,"[5]; 500 ppm, 32 DAA",25%
same,height reduction against check,"[5]; 500 ppm, 39 DAA",25%
same,delay in flowering,[6]; 125 ppm,* (^* = 3-4 days delay)
same,height reduction against check,"[6]; 125 ppm, 14 DAA",0%
same,height reduction against check,"[6]; 125 ppm, 32 DAA",0%
same,height reduction against check,"[6]; 125 ppm, 39 DAA",10%
same,delay in flowering,[6]; 250 ppm,* (^* = 3-4 days delay)
same,height reduction against check,"[6]; 250 ppm, 14 DAA",10%
same,height reduction against check,"[6]; 250 ppm, 32 DAA",10%
same,height reduction against check,"[6]; 250 ppm, 39 DAA",25%
same,height reduction against check,"[6]; 500 ppm, 14 DAA",15%
same,height reduction against check,"[6]; 500 ppm, 32 DAA",25%
same,height reduction against check,"[6]; 500 ppm, 39 DAA",30%
same,stable against hydrolysis,[7],stable
same,Inhibition rating,[8]; 50 ppm spray,6
same,% increase of pods A (number of pods),[8]; 50ppm,45%
same,% increase of pods B (weight of pods),[8]; 50ppm,43%
same,Inhibition rating,[8]; 100 ppm spray,7
same,% increase of pods A (number of pods),[8]; 100 ppm,22%
same,% increase of pods B (weight of pods),[8]; 100 ppm,11%
same,Inhibition rating,[8]; 500 ppm spray,6
same,% increase of pods A (number of pods),[8]; 500 ppm,2%
same,% increase of pods B (weight of pods),[8]; 500 ppm,0%
"CN(C)NC(=O)CCC(=O)O [A, succinic acid mono-N-dimethylhydrazide, reference compound]",delay in flowering,"[3]; foliar spray, 3400 ppm",* (^* = 3-4 days delay)
same,height reduction against check,"[3]; foliar spray, 3400 ppm, 11 DAA",40%
same,height reduction against check,"[3]; foliar spray, 3400 ppm, 30 DAA",40%
same,height reduction against check,"[3]; foliar spray, 3400 ppm, 55 DAA",25%
same,delay in flowering,[4]; 3400 ppm,* (^* = 3-4 days delay)
same,height reduction against check,"[4]; 3400 ppm, 14 DAA",30%
same,height reduction against check,"[4]; 3400 ppm, 32 DAA",30%
same,height reduction against check,"[4]; 3400 ppm, 39 DAA",25%
same,delay in flowering,[5]; 3400 ppm,* (^* = 3-4 days delay)
same,height reduction against check,"[5]; 3400 ppm, 14 DAA",30%
same,height reduction against check,"[5]; 3400 ppm, 32 DAA",30%
same,height reduction against check,"[5]; 3400 ppm, 39 DAA",25%
same,delay in flowering,[6]; 3400 ppm,* (^* = 3-4 days delay)
same,height reduction against check,"[6]; 3400 ppm, 14 DAA",20%
same,height reduction against check,"[6]; 3400 ppm, 32 DAA",30%
same,height reduction against check,"[6]; 3400 ppm, 39 DAA",25%
